# Literature values, collected in patent publication US11865215B2, “Tablet compositions comprising abiraterone acetate” (SYNTHON B.V., priority 2018, dated 2024).
# How the values were obtained:
# [1] = not given; remark: listed apart in the source
solubility in water,time to reach maximum plasma concentration of abiraterone ([1]; oral administration in the fasting state),SMILES,BCS System class (compound of low solubility and low permeability),effect of taking the tablet with food on absorption ([1]; with food)
,,"CC(=O)O[C@H]1CC[C@@]2(C)C(=CC[C@@H]3[C@@H]2CC[C@]2(C)C(c4cccnc4)=CC[C@@H]32)C1 [Abiraterone acetate, 3β-acetoxy-17-(3-pyridyl)androsta-5,16-diene]",Class IV,significantly and undesirably increases the absorption
less than 0.1 mg/ml,approx. 2 hours,C[C@]12CC[C@H](O)CC1=CC[C@@H]1[C@@H]2CC[C@]2(C)C(c3cccnc3)=CC[C@@H]12 [Abiraterone],,
